Structures are written as SMILES. Activity calls are given as the source filed them.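 The calls were made as follows: active = AC50 no more than ten times the top concentration tested, that is within one log above it; inconclusive = flat curve fit with activity between 30% and 70%, or invalid poor fit; inactive = AC50 beyond ten times the top tested dose.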

This assay has as its system S. cerevisiae Mot1-301 ts growth rescue, BacTiter-Glo ATP luminescence. The experiment in a line: restored Mot1-301 yeast growth at 38.5C – whole organism, S. cerevisiae, Mot1-301 ts mutant, luminescence, dose retest, SUMOylation pathway inhibitor project, confirmation (AID 463204).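 Also: growth at restrictive 38.5 degrees C of Mot1-301 OY566 strain; actives raise luminescence by restoring growth of the ts mutant at high temperature.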
As usually defined, the AC50 is the concentration at which the activity in the assay is half-maximal. As to `O=C(Cc1ccc(F)cc1)Nc1nc(-c2ccc(F)cc2)cs1`, the AC50 was > 42 µM (inactive).
Then `C/C=C/C(=O)OCC(=O)Nc1nc2ccc(C)cc2s1`, with > 42 µM (inactive).
With `O=S(=O)(c1ccc(S(=O)(=O)N2CCCC2)cc1)N1CCCCC1`, the AC50 was > 42 µM (inactive).
As to `O=S(=O)(Nc1cccc2cn[nH]c12)c1ccc(F)cc1`, the AC50 is > 42 µM (inactive).
With `CCn1c(SCC(=O)N/N=C/c2ccccc2OCC(=O)O)nnc1-c1ccc(C(C)(C)C)cc1`, the AC50 is 32.7 µM.
As for `CCCCn1c2c(c(=O)n(C)c1=O)C(c1ccc(OC)cc1)N1CCCCCC1=N2` (configuration not stated), the figure is > 42 µM (inactive).
Regarding `CC(=O)N/C(=C\c1ccccc1)C(=O)OCC(=O)c1ccccc1`, the AC50 is > 42 µM (inactive).
As for `Cc1ccc(/C=C/C(=O)OCC(=O)N(CC(C)C)c2c(N)n(Cc3ccccc3)c(=O)[nH]c2=O)o1`, the figure is > 21 µM (inactive); as for `CCOCCn1c(-c2ccc(OC)cc2)nc2ccccc21`, > 42 µM (inactive).
Then `O=C(CSc1nnc(CNC(=O)c2ccco2)o1)Nc1nc2ccccc2s1`, with > 42 µM (inactive); and `COc1ccc(C2=Nn3c(nnc3-c3ccco3)SC2)cc1`, with > 42 µM (inactive).
As to `COc1ccc(NC(=O)c2ccc(S(=O)(=O)N(C)c3ccccc3)cc2)cn1`, the AC50 is > 42 µM (inactive).
As for `Cc1ccc(S(=O)(=O)N2CCN(C(=O)CSc3nc(N)cc(=O)[nH]3)CC2)c(C)c1`, the AC50 was > 42 µM (inactive).
As for `CN(C)C(=O)CCN1CCOCC1`, the AC50 is > 42 µM (inactive).
`O=S(=O)(Cc1ccccc1)NCc1ccccn1`: the AC50 is > 42 µM (inactive).
`Cc1nn(C)cc1CNC(=O)C1CCC(=O)N(Cc2cccc(C(F)(F)F)c2)C1` (configuration not stated): the AC50 is > 42 µM (inactive).
For the compound `O=C1NC(Cc2c[nH]c3ccccc23)C(=O)N1Cc1ccc(CN2C(=O)NC(Cc3c[nH]c4ccccc34)C2=O)cc1` (configuration not stated), the AC50 is > 42 µM (inactive).
For `Cn1c(SCC(=O)Nc2ccc(N3CCOCC3)c(Cl)c2)nnc1-c1ccccc1`, the AC50 was > 42 µM (inactive).
Then `CCCCCNC(=O)c1ccc2c(=O)n(CC3CCCO3)c(=O)[nH]c2c1` (configuration not stated), with > 42 µM (inactive).
Then `COc1cc2c(=O)n(CCC(=O)NCC3CCCO3)c(=O)n(CC(=O)Nc3ccccc3C)c2cc1OC` (configuration not stated), with > 42 µM (inactive).
As for `O=C(NCc1ccco1)c1ccc(Br)c(S(=O)(=O)N2CCCCC2)c1`, the figure is > 42 µM (inactive); as for `CCN(CC)CCCn1c(=S)[nH]c2ccc(Cl)cc2c1=O`, > 42 µM (inactive).
Take `CCNC(=O)C1CC(=O)N(Cc2ccc3c(c2)OCO3)C(=Nc2ccc(F)cc2)S1` (configuration not stated): the AC50 is > 42 µM (inactive).
Take `Cc1cnc(NC(=O)CN2CCN(c3ccccc3F)CC2)s1`: the AC50 is > 42 µM (inactive).
Then `COc1ccccc1N1CCN(C(=O)C(=O)N/N=C/c2ccccc2F)CC1`, with > 42 µM (inactive).
As for `N#Cc1c(NC(=O)c2ccc([N+](=O)[O-])o2)sc2c1CCC2`, the figure is 40.1 µM; as for `O=C(CSc1ncnc2nc[nH]c12)Nc1ccccc1C(F)(F)F`, > 42 µM (inactive).
Consider `COc1ccc(N2CCN(C3CCCN(Cc4cccc(OC)c4)C3)CC2)cc1` (configuration not stated), for which the AC50 was > 42 µM (inactive).
As for `CCC1CCCCN1C(=O)CSc1nnc(CNC(=O)c2ccco2)o1` (configuration not stated), the figure is > 42 µM (inactive); as for `Cc1nc2c(-c3ccc(F)cc3)cnn2c2c1CCC2`, > 42 µM (inactive); as for `O=C(/C=C/c1ccc(F)cc1)NCC1(c2ccccc2)CCOCC1`, > 42 µM (inactive).
`CC[C@H]1CCCCc2ccccc2[C@@H](C(=O)C[C@@H](O)CC(C)=O)OC1=O`: the AC50 was 14.2 µM.
As for `COc1ccc(CCC(=O)Nc2ccc3c(c2)OCO3)cc1`, the figure is > 42 µM (inactive); as for `CCCCC(=O)N/N=C(\C)CC(=O)Nc1cc(Cl)ccc1OC`, > 42 µM (inactive); as for `Cc1ccc(NC(=O)C(CC(C)C)NC(=O)C2CCC(C)CC2)nc1` (configuration not stated), > 42 µM (inactive).
Then `COc1ccc(N2CCN(C(=O)CNC(=O)Cc3ccc(Cl)cc3)CC2)cc1`, with > 42 µM (inactive); and `Cc1nn(C(C)(C)C)c(OC(=O)c2ccc3c(c2)OCO3)c1S(=O)(=O)c1ccccc1`, with > 42 µM (inactive).
Turning to `CCOC(=O)c1sc2ncnc(N3CCN(c4ccc(OC)cc4)CC3)c2c1C`, the AC50 was > 42 µM (inactive).
Then `N#CC1=C(N)Nc2ncnn2C1c1ccc([N+](=O)[O-])cc1` (configuration not stated), with > 42 µM (inactive); and `COC(=O)c1ccc(Cn2cc(Cl)cn2)cc1`, with > 42 µM (inactive); and `Cc1ccc(-c2csc3ncn(CC(=O)N4CCOCC4)c(=O)c23)cc1`, with > 42 µM (inactive).
As for `CCOc1cc(NC(=O)c2cccs2)c(OCC)cc1NC(=O)CCC(=O)NCCN1CCOCC1`, the figure is > 42 µM (inactive); as for `Cc1nc(-c2cccc(S(=O)(=O)N3CCOCC3)c2)cs1`, > 42 µM (inactive).
Consider `COC(=O)C1C2C=CC3(CN(CCc4ccccc4)C(=O)C13)O2` (configuration not stated), for which the AC50 was > 21 µM (inactive).
In the case of `COc1ccc(N2C(=O)CC(NCc3cccs3)C2=O)cc1` (configuration not stated), the AC50 was > 42 µM (inactive).
Then `COc1ccc(C(C)=O)cc1CN(c1ccccc1OC)S(=O)(=O)c1cccs1`, with > 42 µM (inactive); and `COc1ccccc1-c1nnc(SCC(=O)NC2CCS(=O)(=O)C2)n1N` (configuration not stated), with > 42 µM (inactive); and `NC(=O)c1nsc(C(=O)N(Cc2ccc(F)cc2)C(C(=O)NC2CCCC2)c2ccco2)c1N` (configuration not stated), with > 42 µM (inactive).
Consider `CN(CC(=O)Nc1sccc1C#N)Cc1ccccc1`, for which the AC50 is > 42 µM (inactive).
As for `COc1cc(C(=O)NCCOc2cc(C)cc(C)c2)cc(OC)c1OC`, the figure is > 42 µM (inactive).
In the case of `Cc1ccc(-c2noc(C3CCCN(S(=O)(=O)c4ccc5ccccc5c4)C3)n2)o1` (configuration not stated), the AC50 was > 42 µM (inactive).
As to `CSc1ccc(Cl)c(C(=O)Nc2ccc(N3CCOCC3)cc2)c1`, the AC50 was > 42 µM (inactive).
As for `O=C(NCc1ccccc1Cl)c1ccc2c(c1)OCO2`, the figure is 30.4 µM.
For `COc1ccc(S(=O)(=O)NC(C)C(=O)NCc2ccccn2)cc1Cl` (configuration not stated), the AC50 was > 42 µM (inactive).
As for `C[C@H]1CN=C(Nc2ccccc2)N1CCC1CCCC1`, the figure is > 42 µM (inactive).
For the compound `CCCn1c(SC(C)C(=O)NCC2CCCO2)nc2sc(CC)cc2c1=O` (configuration not stated), the AC50 was > 42 µM (inactive).
As for `CC(=O)c1ccc(Oc2cc(C)nc(N3CCOCC3)n2)cc1`, the figure is > 42 µM (inactive); as for `CC(=O)c1ccccc1C(=O)N1CCCC(N2CCN(Cc3ccc4c(c3)OCO4)CC2)C1` (configuration not stated), > 42 µM (inactive); as for `CCn1cc(C(=O)N2CCN(c3ccc(OC)cc3)CC2)c(=O)c2cc(S(=O)(=O)N3CCOCC3)ccc21`, > 42 µM (inactive).
For `Cc1cc(C(=O)NNC(=O)c2ccc(C)s2)c(C)o1`, the AC50 was > 42 µM (inactive).
As for `COc1cc(C(c2c(C)[nH][nH]c2=O)c2c(C)[nH][nH]c2=O)cc(OC)c1OC`, the figure is > 42 µM (inactive); as for `O=C(CSc1nnc(-c2cccs2)n1-c1ccccc1)c1ccc2c(c1)OCCO2`, > 42 µM (inactive).

Source of the values: PubChem BioAssay AID463204 (Broad Institute, 2010).
